Key:
USP8 = biological target: T1, USP8 (Homo sapiens, UniProt P40818); experiment: GST-Ub52-Flag HTRF deubiquitinating enzyme assay, USP8
T1 sequence (P40818 1-1118): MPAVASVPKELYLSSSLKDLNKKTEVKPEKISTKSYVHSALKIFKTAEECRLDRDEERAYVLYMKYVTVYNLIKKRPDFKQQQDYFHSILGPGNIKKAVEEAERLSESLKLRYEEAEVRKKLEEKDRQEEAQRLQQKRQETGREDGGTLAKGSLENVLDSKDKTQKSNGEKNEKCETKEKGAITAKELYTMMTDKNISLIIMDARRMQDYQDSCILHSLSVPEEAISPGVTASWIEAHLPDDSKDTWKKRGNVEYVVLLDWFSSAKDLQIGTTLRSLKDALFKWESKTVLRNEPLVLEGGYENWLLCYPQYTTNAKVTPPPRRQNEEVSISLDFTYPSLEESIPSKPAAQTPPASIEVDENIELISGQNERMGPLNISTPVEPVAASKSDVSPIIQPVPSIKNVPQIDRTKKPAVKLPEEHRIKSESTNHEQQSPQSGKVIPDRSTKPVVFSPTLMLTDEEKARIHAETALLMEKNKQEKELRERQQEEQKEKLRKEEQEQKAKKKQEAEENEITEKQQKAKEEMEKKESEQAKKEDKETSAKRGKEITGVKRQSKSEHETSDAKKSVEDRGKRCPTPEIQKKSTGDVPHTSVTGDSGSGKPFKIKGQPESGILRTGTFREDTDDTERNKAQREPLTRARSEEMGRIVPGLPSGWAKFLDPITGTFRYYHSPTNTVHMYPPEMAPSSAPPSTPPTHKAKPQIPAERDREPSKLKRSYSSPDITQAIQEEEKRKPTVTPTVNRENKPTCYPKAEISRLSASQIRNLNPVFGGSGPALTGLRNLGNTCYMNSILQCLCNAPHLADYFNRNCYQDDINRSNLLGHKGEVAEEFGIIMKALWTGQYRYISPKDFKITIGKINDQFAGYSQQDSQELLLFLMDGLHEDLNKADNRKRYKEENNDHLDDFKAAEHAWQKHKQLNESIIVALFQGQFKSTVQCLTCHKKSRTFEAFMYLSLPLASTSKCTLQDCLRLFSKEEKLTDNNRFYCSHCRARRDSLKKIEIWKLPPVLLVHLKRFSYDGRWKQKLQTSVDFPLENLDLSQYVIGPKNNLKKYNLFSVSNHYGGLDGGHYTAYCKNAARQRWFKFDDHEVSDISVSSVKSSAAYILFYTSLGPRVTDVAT
Description: The cDNA encoding USP8 was obtained by PCR amplification from placenta mRNA. USP8 cDNA was subcloned by PCR into a baculovirus expression vector (pFastBac-HT; Invitrogen). A cDNA encoding a mutated USP8 was generated by mutagenic PCR. […] The sequences were ascertained by sequencing of the entire open reading frame. Bacmids encoding USP8 were generated following DH10bac transposition. The corresponding bacmids were transfected into insect cells (Sf9). Viruses were recovered from culture supernatant and amplified twice. Insect cells (Sf9 or High Five; Invitrogen) were infected for 72 hours. […] Proteins were affinity purified on metal affinity resins (Talon Metal affinity resin; BD Biosciences). Bound materials were extensively washed in wash buffer (50 mM Sodium Phosphate pH 7.0; 300 mM NaCl; 10 mM imidazole; 0.5% Triton X-100; 10% glycerol) and eluted from the resin in 250 mM imidazole-containing wash buffer. Proteins were dialyzed in dialysis buffer (Tris HCl pH 7.6 20 mM; NaCl 200 mM; DTT 1 mM; EDTA 1 mM; 10% Glycerol).
A cDNA encoding the fusion protein between ubiquitin and the ribosomal protein L40 (ub52 or uba52 or ubiquitin-L40) was amplified from human RNA using a proprietary human placenta library. The cDNA was subcloned into a bacterial expression vector (pGEX-2T, GE Healthcare), including an additional flag tag at the carboxyl end of the encoded protein.
For production and purification of recombinant proteins, the plasmid pGEX-2T-Ub52-flag was transformed into E. coli BL21 (Stratagene), grown in LB medium supplemented with 100 mg/ml ampicillin (LB ampi) at 37° C. overnight and then diluted 1/100 in LB ampi. The cells were incubated at 37° C. until an A600=0.6-0.8 was reached. After induction with 0.1 mM isopropyl-β-D-thiogalactopyranoside (IPTG), the culture was incubated at 30° C. for 180 min.
Cells were harvested by centrifugation for 15 min at 7000×g at 4° C. Bacterial pellets were lysed in NETN (Tris HCl pH 8.0; EDTA 1 mM; NP40 0.5%; protease inhibitor cocktail, PMSF 1 mM) and briefly sonicated. Insoluble material was removed by centrifugation 30 min at 14000×g. […] Briefly, soluble fraction was incubated on Glutathione beads pre-equilibrated in NETN buffer+0.5% Milk for 120 min at 4° C. Flow Through was recovered. Beads were extensively washed: the last wash was performed in Tris HCl pH 7.6 20 mM; NaCl 100 mM; MgCl2 12 mM. Elutions were performed using 20 mM Reduced Glutathione in 50 mM Tris HCl pH 8.0, NaCl 120 mM. […] Elutions were dialysed over night at 4° C. in Tris HCl pH 7.6 20 mM; NaCl 50 mM; DTT 0.5 mM.
The use of GST-Ub52-Flag is based on the time-resolved measurement of fluorescence emitted by transfer in homogenous medium.
The assay is carried out on multiwell assay plates. The plates are analyzed on a PHERAstar fluorimeter (BMG) after an overnight incubation at 4° C.
The enzyme reaction is carried out by mixing GST-Ub52-flag solution with 5 μl of USP7 solution (200 pM final) or 5 μl of USP8 (400 pM final). This mixture is incubated for one hour at room temperature on a multiwell assay plate. […] The plate is read after an overnight incubation at 4° C. on a PHERAstar fluorimeter (BMG).
The decrease in the signal correlates with the increase in enzyme activity i.e. the cleavage of GST-Ub52-Flag substrate.
Data (mean values+/−standard deviation) were analyzed as % of control (no compound) and plotted as percentage versus the Log of the compound concentration using GraphPad (Prism).

USP7 = USP7 (Homo sapiens, UniProt Q93009); experiment: GST-Ub52-Flag HTRF deubiquitinating enzyme assay, USP7; assay type: biochemical; set-up: Full-length wild-type human USP7 and its catalytic mutant; His tag (pFastBac-HT vector) (N); made in house; host or cells: Spodoptera frugiperda Sf9 (or High Five) insect cells, baculovirus; settings: GST-Ub52-Flag substrate, USP7 200 pM
Sequence of USP7 (Q93009 whole entry): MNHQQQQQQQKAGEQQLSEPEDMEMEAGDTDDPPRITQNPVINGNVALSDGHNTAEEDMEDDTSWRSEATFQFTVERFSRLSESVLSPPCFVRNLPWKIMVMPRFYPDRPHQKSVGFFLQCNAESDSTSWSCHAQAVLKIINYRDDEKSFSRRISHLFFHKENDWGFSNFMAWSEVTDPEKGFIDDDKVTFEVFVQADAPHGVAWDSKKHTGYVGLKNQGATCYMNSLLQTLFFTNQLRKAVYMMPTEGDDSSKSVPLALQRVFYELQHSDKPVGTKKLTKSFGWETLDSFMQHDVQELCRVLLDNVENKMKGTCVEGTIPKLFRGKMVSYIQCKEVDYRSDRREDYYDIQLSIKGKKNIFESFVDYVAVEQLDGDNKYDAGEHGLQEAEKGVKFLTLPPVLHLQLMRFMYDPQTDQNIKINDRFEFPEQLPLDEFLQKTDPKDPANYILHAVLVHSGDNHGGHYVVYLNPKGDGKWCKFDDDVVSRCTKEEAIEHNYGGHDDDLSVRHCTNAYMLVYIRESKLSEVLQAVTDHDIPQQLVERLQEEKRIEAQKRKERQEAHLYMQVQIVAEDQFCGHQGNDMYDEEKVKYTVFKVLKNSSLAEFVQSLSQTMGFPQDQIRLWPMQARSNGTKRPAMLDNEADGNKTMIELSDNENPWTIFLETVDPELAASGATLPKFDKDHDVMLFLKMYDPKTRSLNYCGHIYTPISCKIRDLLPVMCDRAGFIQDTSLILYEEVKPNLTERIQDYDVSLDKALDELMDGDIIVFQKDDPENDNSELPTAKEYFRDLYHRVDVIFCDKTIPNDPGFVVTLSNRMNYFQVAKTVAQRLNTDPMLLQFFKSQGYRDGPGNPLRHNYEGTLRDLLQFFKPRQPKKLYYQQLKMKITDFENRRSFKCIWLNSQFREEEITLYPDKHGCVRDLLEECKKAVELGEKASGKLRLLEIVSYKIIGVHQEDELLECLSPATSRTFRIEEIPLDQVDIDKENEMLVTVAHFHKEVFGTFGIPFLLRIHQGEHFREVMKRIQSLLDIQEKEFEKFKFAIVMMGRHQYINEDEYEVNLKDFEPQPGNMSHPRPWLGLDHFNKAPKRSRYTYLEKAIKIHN
Procedure: Bacmid DNA was prepared by an alkaline lysis procedure. The integrity of the bacmid minipreps and their orientation were checked by PCR, using generic and specific primers. Sf9 insect cells were cultured in InsectXpress medium (Cambrex) at 27° C. and transfected with the corresponding bacmid, using GeneShuttle 40 (Q-BIOgen). Viruses were recovered in the supernatant 72 h after transfection. Viruses were amplified by infecting insect cells (Sf9 or High Five cells; invitrogen) in 50 ml InsectXpress medium in a 150 cm^2 cell culture flask with 500 μl of the supernatant from transfected Sf9 cells. Following the second round of amplification, infected cells were recovered by rapid SDS lysis, boiled for 5 min at 100° C., sonicated briefly and centrifuged for 20 min at 14,000 g.
Flow Through was recovered.

For `O=C(COc1cccc(F)c1)N1CCC(O)(Cn2cnc3ccccc3c2=O)CC1` [Example 8, 3-({1-[2-(3-fluorophenoxy)acetyl]-4-hydroxypiperidin-4-yl}methyl)-3,4-dihydroquinazolin-4-one], the IC50 (USP8) was over 200 µM and the IC50 (USP7) was 224 µM.
